Source: patent US20210244728A1, “Method of treating peripheral neuropathy” (Chemedest Ltd., priority 2012, published 2021)

How the values were obtained:
[1] = tested on: spinal nerve-ligated rats; experiment: Von Frey test in Chung model (spinal nerve ligation) of neuropathic pain; type: in vivo; conditions: for Signs of sedation or toxicity: during pretreatment or testing
From the text: The study was designed to evaluate the analgesic efficacy of test compounds in the rat Chung model of neuropathic pain.
Male Sprague Dawley rats (100-125 g) from Harlan (Indianapolis, Ind.) were used in the study. Upon receipt, rats were assigned unique identification numbers and were group housed with 3 rats per cage in polycarbonate cages with micro-isolator filter tops. All rats were examined, handled, and weighed prior to initiation of the study to assure adequate health and suitability. During the course of the study, 12/12 light/dark cycles were maintained, with lights on at 7:00 am EST. The room temperature was maintained between 20 and 23° C. with a relative humidity maintained around 50%. Chow and water were provided ad libitum for the duration of the study.
Reference compound: Gabapentin (100 mg/kg; TRC, Lot No. 1-SWM-154-1) was dissolved in saline and administered acutely on test day (day 8 or 12) 1 hour prior to testing, at a dose volume of 1 ml/kg, p.o.
Test compounds: CHM-65 (5, 15 and 25 mg/kg, Q.D., Lot n/a) was dissolved in sterile injectable saline and administered subcutaneously on days 1, 3, 5 and 8 with the first administration (day 1) occurring 1 hour post-op. On day 8, compound was administered 1 hour prior to testing. The dose volume was 3 ml/kg.
CHM-36 (20 mg/kg, Q.D., Lot n/a) was dissolved in sterile injectable saline and administered subcutaneously on days 1, 3, 5 and 8 with the first administration (day 1) occurring 1 hour post-op. On day 8, compound was administered 1 hour prior to testing. The dose volume was 5 ml/kg.
Artemin (CHMB-1) (0.5 mg/kg, Q.D., Lot n/a) was administered subcutaneously on days 1, 3, 5, 8, 10 and 12 with the first administration (day 1) occurring 1 hour post-op. On day 12, compound was administered 1 hour prior to testing. The dose volume was 0.5 ml/kg.
Under general anesthesia with continuous inhalation of isoflurane, surgery was performed with aseptic procedures in surgery unit. Sterile ophthalmic ointment was used to lubricate the eyes. Animals were observed continuously for the level of anesthesia, testing for the animal's reflex response to tail or paw pinch and closely monitoring the animal's breathing. A heating pad was used to maintain body temperature at 37° C. while the animals recovered from anesthesia. The skin at the area of the lower lumber and sacral level of the rat was shaved and disinfected with betadine and alcohol. A left longitudinal incision at the level next to the vertebral column was made and the left paraspinal muscles were separated. The transverse process of L6 was removed and nearby connective tissue cleaned to expose L5 and L6 spinal nerves. After the nerves were isolated and clearly visualized, 4-0 silk threads were used to ligate the left L5. The muscles were sutured with 4-0 silk threads and the wound closed by staples. All rats received an analgesic (buprenorphine, 0.05 mg/kg, s.c.) immediately before and 6 hours after surgery. Each rat was monitored until awake and moving freely around the recovery chamber. Animals were then single-housed for the duration of the study. Rats began their chronic-treatment regimen (all test groups except gabapentin) 1 hour post-op on surgery day.
Withdrawal from a mechanical stimulus was measured by applying von Frey (VF) filaments of ascending bending force to the plantar surface of the hind paws (ipsilateral and contralateral). A positive response was defined as withdrawal from the von Frey filament. […]

[2] = tested on: peripheral neuron populations (dorsal root, trigeminal, nodose, superior cervical ganglia) and cultured fetal ventral mesencephalic DA neurons; conditions: cited from earlier work
animals = conditions: systemic administration in animals; cited from earlier work
[3] = tested on: rats with SNL (spinal nerve ligation); conditions: repeated injection; cited from earlier work
sciatic-ligated rats = experiment: Von Frey test in Bennett model (chronic constrictive injury of the sciatic nerve) of neuropathic pain; type: in vivo, Male Sprague Dawley rats
From the text: The study was designed to evaluate the analgesic efficacy of compound XV (CHM-65) in the Bennett model of neuropathic pain.
Male Sprague Dawley rats (100-125 g) from Harlan (Indianapolis, Ind.) were used in the study. Upon receipt, rats were assigned unique identification numbers and were group housed with 3 rats per cage in polycarbonate cages with micro-isolator filter tops. All rats were examined, handled, and weighed prior to initiation of the study to assure adequate health and suitability. During the course of the study, 12/12 light/dark cycles were maintained, with lights on at 7:00 am EST. The room temperature was maintained between 20 and 23° C. with a relative humidity maintained around 50%. Chow and water were provided ad libitum for the duration of the study. […]
This surgery was performed according to Bennett and Xie (1988). […] Each rat was monitored until awake and moving freely around the recovery chamber. […]
Withdrawal from a mechanical stimulus was measured by applying von Frey (VF) filaments of ascending bending force to the plantar surface of the hind paws (ipsilateral and contralateral). […]
Data were analyzed by one-way analysis of variance (ANOVA) followed by Fisher PLSD post-hoc comparisons. […]

CHMB-1: GDNF family ligand artemin (ARTN), neurotrophic factor signalling through GFR α 3/RET
ipsilateral paw withdrawal threshold compared to vehicle ([1]; 0.5 mg/kg s.c. on days 1, 3, 5, 8, 10 and 12, tested day 12, 1 hour after administration, FIG. 7): significantly increased
survival of peripheral neuron populations and cultured fetal ventral mesencephalic DA neurons [2]: promote the survival
restoration of nociceptive and sensorimotor functions (animals): essentially complete and persistent restoration
behavioral responses to light touch and noxious thermal stimuli [3]: dose-dependent normalization
behavioral signs of toxicity [3]: without producing behavioral signs of toxicity

NCC1(CC(=O)O)CCCCC1 [gabapentin, Gabapentin]
Signs of sedation or toxicity ([1]; CHM-36 study): not observed
Signs of sedation or toxicity ([1]; artemin study): not observed
ipsilateral paw withdrawal threshold compared to vehicle ([1]; gabapentin 100 mg/kg p.o., acute on test day, 1 hour prior to testing, CHM-36 study, FIG. 5): significantly increased
ipsilateral paw withdrawal threshold compared to vehicle ([1]; gabapentin 100 mg/kg p.o., acute on test day, 1 hour prior to testing, artemin study, FIG. 7): significantly increased
Signs of sedation or toxicity (sciatic-ligated rats; during pretreatment or testing, Bennett model study): not observed
ipsilateral paw withdrawal threshold compared to vehicle (sciatic-ligated rats; gabapentin 100 mg/kg p.o., acute on day 12, 1 hour prior to testing, FIG. 3): significantly increased
